Data taken from US20250320193A1, “OXOISOINDOLINYL SUBSTITUTED PIPERIDINEDIONE DERIVATIVE AND USE THEREOF” (GLUETACS THERAPEUTICS (SHANGHAI) CO., LTD., priority 2022, published 2025).

Tests used:
Format in all cases: cell-based
IKZF1 = IKZF1 (Homo sapiens (Human), UniProt Q13422+Q96SW2); assay: Western blot, substrate protein expression in hPBMC: IKZF1; details: for substrate protein remaining % IKZF1: hPBMC, compound 500 nM, 24 hours, Western blot
Description: (§1) The effect of the compounds of the present disclosure on the expression of target proteins in cells was detected using conventional Western blot analysis.
(§2) Human peripheral blood mononuclear cells (hPBMCs) at a density of 1×10^6 cells/mL were thawed according to the PBMC Recovery Protocol (Milecell Biotechnologies Inc, Shanghai). […] After 24 hours of compounds treatment, cells were harvested and lysed in RIPA protein lysate containing phosphatase inhibitors on ice for 30-60 min, followed by centrifugation. The supernatant was aspirated as the extracted total cell protein. The protein concentration of the supernatant was determined using the conventional BCA (Bicinchoninic Acid) assay. The supernatant was then mixed with 4× SDS sample loading buffer, denatured at 95° C. for 5 minutes, and then subjected to SDS-PAGE electrophoresis on a polyacrylamide gel. Proteins were then transferred to a nitrocellulose (NC) membrane, blocked at room temperature for 1-2 h, and processed for antibody incubation and detection according to the manufacturer's instructions (Cell Signaling Technology).
(§3) Half-Maximal Degradation Concentration value (the drug concentration required for degrading proteins by 50%, abbreviated as DC50) reads method: comparing the grayscale values of Western blot bands from drug-treated samples (protein degrader compounds) with those from blank (DMSO-treated) controls, and identifying the drug concentration range at which the grayscale value is half that of the DMSO-treated control bands.
(§4) DC50 values can be calculated using ImageJ software to measure grayscale values of Western blot bands from drug-treated samples. The relationship curve between drug concentration and grayscale values is fitted to estimate the drug concentration corresponding to half the grayscale value.
(§5) Target protein remaining (%) refers to the percentage of target protein remaining in hPBMC cells after treatment with protein degrader compounds.
(§6) Calculation method for protein remaining (%): Use ImageJ software to measure grayscale values of Western blot bands from drug (protein degrader)-treated samples. The grayscale value of drug-treated bands is divided by that of internal control protein bands, and the resulting quotient is normalized to obtain the relative percentage of remaining target protein after protein degrader treatment.
(§7) Target protein degradation rate (%)=100%-target protein remaining (%).

GSPT1 = GSPT1 (Homo sapiens (Human), UniProt P15170+Q96SW2); assay: Western blot, substrate protein expression in hPBMC: GSPT1; details: for substrate protein remaining % GSPT1: hPBMC, compound 500 nM, 24 hours, Western blot
GSPT1, sequence (P15170 whole entry): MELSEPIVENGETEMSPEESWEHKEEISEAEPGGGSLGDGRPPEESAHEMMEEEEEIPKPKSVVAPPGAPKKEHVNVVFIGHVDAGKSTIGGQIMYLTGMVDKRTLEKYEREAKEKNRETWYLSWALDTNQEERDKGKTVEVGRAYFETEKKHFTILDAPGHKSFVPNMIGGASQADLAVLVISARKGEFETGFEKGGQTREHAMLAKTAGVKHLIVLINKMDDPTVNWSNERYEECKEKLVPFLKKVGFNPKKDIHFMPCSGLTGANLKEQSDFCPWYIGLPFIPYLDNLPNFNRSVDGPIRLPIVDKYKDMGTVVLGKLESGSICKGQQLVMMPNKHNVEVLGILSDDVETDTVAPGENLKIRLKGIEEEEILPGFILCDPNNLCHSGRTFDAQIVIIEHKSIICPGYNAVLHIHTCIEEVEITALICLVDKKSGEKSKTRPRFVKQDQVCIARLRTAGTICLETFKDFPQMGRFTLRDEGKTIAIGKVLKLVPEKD
GSPT1, sequence (Q96SW2 whole entry): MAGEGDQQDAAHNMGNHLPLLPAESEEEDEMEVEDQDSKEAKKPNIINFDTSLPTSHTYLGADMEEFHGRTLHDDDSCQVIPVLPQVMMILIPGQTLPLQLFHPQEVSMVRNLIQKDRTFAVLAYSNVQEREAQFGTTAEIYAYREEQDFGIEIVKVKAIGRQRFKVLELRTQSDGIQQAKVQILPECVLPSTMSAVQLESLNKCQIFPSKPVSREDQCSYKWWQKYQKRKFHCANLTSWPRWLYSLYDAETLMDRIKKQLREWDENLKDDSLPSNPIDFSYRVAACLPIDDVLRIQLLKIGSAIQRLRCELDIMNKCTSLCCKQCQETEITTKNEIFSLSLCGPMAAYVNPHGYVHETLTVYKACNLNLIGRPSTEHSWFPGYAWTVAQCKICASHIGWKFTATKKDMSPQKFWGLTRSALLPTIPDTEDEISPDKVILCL
GSPT1, sequence (Q16531 whole entry partner): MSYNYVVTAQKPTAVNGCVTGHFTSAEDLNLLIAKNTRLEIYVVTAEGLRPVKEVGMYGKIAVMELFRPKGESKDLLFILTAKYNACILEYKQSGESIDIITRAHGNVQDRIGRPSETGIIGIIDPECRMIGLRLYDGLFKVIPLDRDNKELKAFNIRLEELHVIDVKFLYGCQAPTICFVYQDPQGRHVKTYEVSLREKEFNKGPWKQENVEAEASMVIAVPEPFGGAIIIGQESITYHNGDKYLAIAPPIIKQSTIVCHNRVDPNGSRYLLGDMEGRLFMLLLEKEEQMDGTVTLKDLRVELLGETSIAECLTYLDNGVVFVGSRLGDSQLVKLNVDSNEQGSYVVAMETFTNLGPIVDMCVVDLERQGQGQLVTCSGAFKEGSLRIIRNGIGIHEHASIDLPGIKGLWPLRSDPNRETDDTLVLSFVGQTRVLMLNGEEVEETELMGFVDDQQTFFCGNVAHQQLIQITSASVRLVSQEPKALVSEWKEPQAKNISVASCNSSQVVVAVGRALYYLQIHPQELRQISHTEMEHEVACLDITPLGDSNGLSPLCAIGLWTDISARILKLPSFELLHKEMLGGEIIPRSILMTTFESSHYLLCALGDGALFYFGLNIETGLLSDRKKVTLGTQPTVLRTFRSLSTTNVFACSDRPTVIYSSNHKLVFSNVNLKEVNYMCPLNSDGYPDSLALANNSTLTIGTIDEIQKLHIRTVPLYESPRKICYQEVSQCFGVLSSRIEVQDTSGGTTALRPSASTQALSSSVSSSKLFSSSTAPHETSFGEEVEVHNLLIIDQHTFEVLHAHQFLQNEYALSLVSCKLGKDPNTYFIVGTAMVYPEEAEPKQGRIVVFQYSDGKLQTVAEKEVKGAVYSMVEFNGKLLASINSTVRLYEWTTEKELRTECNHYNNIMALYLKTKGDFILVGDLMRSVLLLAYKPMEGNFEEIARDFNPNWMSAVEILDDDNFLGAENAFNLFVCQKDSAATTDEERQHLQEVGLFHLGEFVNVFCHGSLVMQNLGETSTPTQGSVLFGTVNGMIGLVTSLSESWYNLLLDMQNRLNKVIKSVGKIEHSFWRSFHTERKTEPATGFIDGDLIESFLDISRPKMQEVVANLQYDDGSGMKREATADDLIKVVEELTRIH
Description: as §1, §2, §3, §4, §5, §6, §7

IKZF3 = IKZF3 (Homo sapiens (Human), UniProt Q96SW2+Q9UKT9); assay: Western blot, substrate protein expression in hPBMC: IKZF3; details: for substrate protein remaining % IKZF3: hPBMC, compound 500 nM, 24 hours, Western blot
IKZF3, sequence (Q9UKT9 whole entry): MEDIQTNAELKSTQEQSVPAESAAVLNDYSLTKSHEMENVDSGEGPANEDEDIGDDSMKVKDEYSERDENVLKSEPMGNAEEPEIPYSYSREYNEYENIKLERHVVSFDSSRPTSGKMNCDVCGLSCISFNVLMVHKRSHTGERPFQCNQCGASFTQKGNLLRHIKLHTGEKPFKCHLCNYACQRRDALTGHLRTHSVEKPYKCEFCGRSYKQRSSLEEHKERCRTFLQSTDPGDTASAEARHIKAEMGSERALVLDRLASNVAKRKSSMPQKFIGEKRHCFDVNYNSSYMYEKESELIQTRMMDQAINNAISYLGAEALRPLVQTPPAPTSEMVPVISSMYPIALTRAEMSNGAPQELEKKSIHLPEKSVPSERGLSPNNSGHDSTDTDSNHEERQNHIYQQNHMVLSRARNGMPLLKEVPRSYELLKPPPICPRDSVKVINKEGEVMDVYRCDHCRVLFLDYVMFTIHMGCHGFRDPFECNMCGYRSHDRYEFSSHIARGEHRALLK
IKZF3, sequence (Q96SW2 whole entry): as the sequence (Q96SW2 whole entry) above
IKZF3, sequence (Q16531 whole entry partner): as the sequence (Q16531 whole entry partner) above
Description: as §1, §2, §3, §4, §5, §6, §7

IKZF1, sequence (Q13422 whole entry): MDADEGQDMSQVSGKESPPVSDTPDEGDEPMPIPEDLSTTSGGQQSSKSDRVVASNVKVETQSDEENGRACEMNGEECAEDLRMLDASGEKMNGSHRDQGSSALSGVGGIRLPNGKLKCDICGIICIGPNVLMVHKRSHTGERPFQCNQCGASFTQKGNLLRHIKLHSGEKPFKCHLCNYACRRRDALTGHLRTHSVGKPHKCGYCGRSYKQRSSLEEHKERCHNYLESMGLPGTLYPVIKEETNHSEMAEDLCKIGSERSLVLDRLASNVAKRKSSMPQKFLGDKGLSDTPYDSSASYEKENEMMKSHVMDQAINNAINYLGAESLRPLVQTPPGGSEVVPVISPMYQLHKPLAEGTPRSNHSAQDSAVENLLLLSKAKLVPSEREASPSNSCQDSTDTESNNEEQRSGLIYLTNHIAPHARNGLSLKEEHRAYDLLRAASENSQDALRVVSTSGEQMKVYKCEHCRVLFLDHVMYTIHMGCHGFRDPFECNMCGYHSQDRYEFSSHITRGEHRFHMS
IKZF1, sequence (Q96SW2 whole entry): as the sequence (Q96SW2 whole entry) above
IKZF1, sequence (Q16531 whole entry partner): as the sequence (Q16531 whole entry partner) above

| Compound | substrate protein remaining % IKZF1 (IKZF1) | substrate protein remaining % GSPT1 (GSPT1) | substrate protein remaining % IKZF3 (IKZF3) | concentration at which IKZF1 protein was significantly degraded (Western blot, FIG. 1) (IKZF1; hPBMCs) | concentration at which GSPT1 protein was clearly/significantly degraded (Western blot, FIG. 1) (GSPT1; hPBMCs) | concentration at which IKZF3 protein was significantly degraded (Western blot, FIG. 1) (IKZF3; hPBMCs) |
| --- | --- | --- | --- | --- | --- | --- |
| O=C1CCC(N2C(=O)c3ccc(CN4CCCN(C(c5ccccc5)c5ccccc5)CC4)cc3C2=O)C(=O)N1 (stereo not drawn) [GT-05739, 5-((4-benzhydryl-1,4-diazepan-1-yl)methyl)-2-(2,6-dioxopiperidin-3-yl) isoindoline-1,3-dione] | B (B represents substrate protein remaining % > 50%) | A (A represents 0% ≤ substrate protein remaining % ≤ 50%) | B (B represents substrate protein remaining % > 50%) |  |  |  |
| O=C1CCC(N2C(=O)c3ccc(CN4CCC(N(c5ccccc5)c5ccccn5)CC4)cc3C2=O)C(=O)N1 (stereo not drawn) [GT-05742, 2-(2,6-dioxopiperidin-3-yl)-5-((4-(phenyl(pyridin-2-yl)amino)piperidin-1-yl)methyl) isoindoline-1,3-dione] | A (A represents 0% ≤ substrate protein remaining % ≤ 50%) | A (A represents 0% ≤ substrate protein remaining % ≤ 50%) | A (A represents 0% ≤ substrate protein remaining % ≤ 50%) | below 50 nM | below 50 nM | below 50 nM |
| O=C1CCC(N2Cc3ccc(C(=O)N4CCN(C(c5ccccc5)c5ccccc5)CC4)cc3C2=O)C(=O)N1 (stereo not drawn) [GT-05851, 3-(6-(4-benzhydrylpiperazine-1-carbonyl)-1-oxoisoindolin-2-yl)piperidine-2,6-dione] | A (A represents 0% ≤ substrate protein remaining % ≤ 50%) | A (A represents 0% ≤ substrate protein remaining % ≤ 50%) | B (B represents substrate protein remaining % > 50%) |  |  |  |
| O=C1CCC(N2C(=O)c3ccc(C(=O)N4CCN(C(c5ccccn5)c5ccccn5)CC4)cc3C2=O)C(=O)N1 (stereo not drawn) [GT-05880, 5-(4-(di(pyridin-2-yl)methyl)piperazine-1-carbonyl)-2-(2,6-dioxopiperidin-3-yl) isoindoline-1,3-dione] | B (B represents substrate protein remaining % > 50%) | A (A represents 0% ≤ substrate protein remaining % ≤ 50%) | B (B represents substrate protein remaining % > 50%) |  |  |  |
| O=C1CCC(N2C(=O)c3ccc(C(=O)N4CCN(C(c5ccc(F)cc5)c5ccc(F)cc5)CC4)cc3C2=O)C(=O)N1 (stereo not drawn) [GT-05885, 5-(4-(bis(4-fluorophenyl)methyl)piperazine-1-carbonyl)-2-(2,6-dioxopiperidin-3-yl) isoindoline-1,3-dione] | B (B represents substrate protein remaining % > 50%) | A (A represents 0% ≤ substrate protein remaining % ≤ 50%) | B (B represents substrate protein remaining % > 50%) |  |  |  |
| O=C1CCC(N2C(=O)c3ccc(C(=O)N4CCN(C(c5ccc(Cl)cc5)c5ccc(Cl)cc5)CC4)cc3C2=O)C(=O)N1 (stereo not drawn) [GT-05890, 5-(4-(bis(4-chlorophenyl)methyl)piperazine-1-carbonyl)-2-(2,6-dioxopiperidin-3-yl) isoindoline-1,3-dione] | B (B represents substrate protein remaining % > 50%) | A (A represents 0% ≤ substrate protein remaining % ≤ 50%) | B (B represents substrate protein remaining % > 50%) |  |  |  |
| O=C1CCC(N2Cc3cc(C(=O)N4C5CC4CN(C(c4ccccc4)c4ccccc4)C5)ccc3C2=O)C(=O)N1 (stereo not drawn) [GT-05891, 3-(5-(3-benzhydryl-3,6-diazabicyclo[3.1.1]heptane-6-carbonyl)-1-oxoisoindolin-2-yl)piperidine-2,6-dione] | B (B represents substrate protein remaining % > 50%) | A (A represents 0% ≤ substrate protein remaining % ≤ 50%) | B (B represents substrate protein remaining % > 50%) |  |  |  |
| O=C1CCC(N2Cc3cc(C(=O)N4CCCN(C(c5ccccc5)c5ccccc5)CC4)ccc3C2=O)C(=O)N1 (stereo not drawn) [GT-05892, 3-(5-(4-benzhydryl-1,4-diazepane-1-carbonyl)-1-oxoisoindolin-2-yl)piperidine-2,6-dione] | B (B represents substrate protein remaining % > 50%) | A (A represents 0% ≤ substrate protein remaining % ≤ 50%) | B (B represents substrate protein remaining % > 50%) |  |  |  |
| O=C1CCC(N2C(=O)c3ccc(CN4CCN(C5c6ccccc6-c6ccccc65)CC4)cc3C2=O)C(=O)N1 (stereo not drawn) [GT-05908, 5-((4-(9H-fluoren-9-yl)piperazin-1-yl)methyl)-2-(2,6-dioxopiperidin-3-yl) isoindoline-1,3-dione] | A (A represents 0% ≤ substrate protein remaining % ≤ 50%) | A (A represents 0% ≤ substrate protein remaining % ≤ 50%) | A (A represents 0% ≤ substrate protein remaining % ≤ 50%) |  |  |  |
| O=C1CCC(N2C(=O)c3ccc(C(=O)N4CCC(N(c5ccccc5)c5ccccn5)CC4)cc3C2=O)C(=O)N1 (stereo not drawn) [GT-05925, 2-(2,6-dioxopiperidin-3-yl)-5-(4-(phenyl(pyridin-2-yl)amino)piperidine-1-carbonyl) isoindoline-1,3-dione] | B (B represents substrate protein remaining % > 50%) | A (A represents 0% ≤ substrate protein remaining % ≤ 50%) | B (B represents substrate protein remaining % > 50%) |  |  |  |
| O=C1CCC(N2C(=O)c3ccc(C(=O)N4CCC(N(c5ccccc5)c5ccccc5)CC4)cc3C2=O)C(=O)N1 (stereo not drawn) [GT-05928, 2-(2,6-dioxopiperidin-3-yl)-5-(4-(diphenylamino)piperidine-1-carbonyl) isoindoline-1,3-dione] | B (B represents substrate protein remaining % > 50%) | A (A represents 0% ≤ substrate protein remaining % ≤ 50%) | B (B represents substrate protein remaining % > 50%) |  |  |  |
| O=C1CCC(N2C(=O)c3cc(F)c(N4C5CCC4CN(C(c4ccccc4)c4ccccc4)C5)cc3C2=O)C(=O)N1 (stereo not drawn) [GT-05932, 5-(3-benzhydryl-3,8-diazabicyclo[3.2.1]octan-8-yl)-2-(2,6-dioxopiperidin-3-yl)-6-fluoroisoindoline-1,3-dione] | B (B represents substrate protein remaining % > 50%) | A (A represents 0% ≤ substrate protein remaining % ≤ 50%) | B (B represents substrate protein remaining % > 50%) |  |  |  |
| O=C1CCC(N2C(=O)c3cc(F)c(N4CC5CC(C4)N5C(c4ccccc4)c4ccccc4)cc3C2=O)C(=O)N1 (stereo not drawn) [GT-05934, 5-(6-benzhydryl-3,6-diazabicyclo[3.1.1]heptan-3-yl)-2-(2,6-dioxopiperidin-3-yl)-6-fluoroisoindoline-1,3-dione] | B (B represents substrate protein remaining % > 50%) | A (A represents 0% ≤ substrate protein remaining % ≤ 50%) | A (A represents 0% ≤ substrate protein remaining % ≤ 50%) |  |  |  |
| O=C1CCC(N2C(=O)c3ccc(N4C5CCC4CN(C(c4ccccc4)c4ccccc4)C5)cc3C2=O)C(=O)N1 (stereo not drawn) [GT-05937, 5-(3-benzhydryl-3,8-diazabicyclo[3.2.1]octan-8-yl)-2-(2,6-dioxopiperidin-3-yl) isoindoline-1,3-dione] | B (B represents substrate protein remaining % > 50%) | A (A represents 0% ≤ substrate protein remaining % ≤ 50%) | B (B represents substrate protein remaining % > 50%) |  |  |  |
| O=C1CCC(N2C(=O)c3ccc(N4C5CC4CN(C(c4ccccc4)c4ccccc4)C5)cc3C2=O)C(=O)N1 (stereo not drawn) [GT-05938, 5-(3-benzhydryl-3,6-diazabicyclo[3.1.1]heptan-6-yl)-2-(2,6-dioxopiperidin-3-yl) isoindoline-1,3-dione] | B (B represents substrate protein remaining % > 50%) | A (A represents 0% ≤ substrate protein remaining % ≤ 50%) | B (B represents substrate protein remaining % > 50%) |  |  |  |
| O=C1CCC(N2C(=O)c3ccc(CN4C[C@H]5C[C@@H]4CN5C(c4ccccc4)c4ccccc4)cc3C2=O)C(=O)N1 (stereo partly drawn) [GT-05959, 5-(((1R,4R)-5-benzhydryl-2,5-diazabicyclo[2.2.1]heptan-2-yl)methyl)-2-(2,6-dioxopiperidin-3-yl) isoindoline-1,3-dione] | B (B represents substrate protein remaining % > 50%) | A (A represents 0% ≤ substrate protein remaining % ≤ 50%) | B (B represents substrate protein remaining % > 50%) |  |  |  |
